Assay results: patent publication US7179821B2, “Method of treating of demyelinating diseases or conditions” (Aventis Pharmaceuticals Inc., priority 2001, dated 2007)
Where “and” joins values, the source holds several entries; their conditions need not be identical. Equal values may be shown once. Marks after values point to notes of the source that are not given here.

Key:
[1] = system: demyelinated area at the moderate compression injury site; assay: Histological study of spinal cords, demyelinated area (luxol fast blue); assay type: in vivo, rat; conditions: HP184 0.3, 1 or 3 mg/kg po or 4-AP 0.6 mg/kg ip, days 35–42 after moderate crush
Description: A study to test whether the treatment with HP184 affected the amount of myelin in rats with moderate long term spinal cord crush injury when administered long after spinal cord injury.
The spinal cords from rats described above in the assessment were used for this study.
(50–60 mg/kg body weight, i.p.) and perfused transcardically—first with 100 mL 0.05M phosphate buffed saline (PBS) containing 0.1% heparin, followed by 300–500 mL of 4% paraformaldehyde (PFA). Segments T9 to L1 of the spinal cords were taken out, then cryo-protected in 30% sucrose solution and frozen at −70° C. in 10.24% polyvinyl alcohol and 4.26% polyethylene glycol.
A segment of each cord including the lesion site plus 10 mm rostral and caudal to the lesion site was embedded in Tissue Tek medium. Serial sections were cut longitudinally at 20 μm intervals on a cryostat. Every third section was stained with luxol fast blue for myelin. The evaluation was performed by observers blinded as to treatment, on coded slides. Sections were examined under a light microscope for the extent of demyelination (the area without luxol fast blue staining).
For determinations of the maximal demyelinated area of the cord, the whole section was digitized on photographs using a Zeiss microscope. The extent of demyelination was measured at the lesion center using a computerized Bioquant BQ-TCW98 image analysis progrem by an investigator who was blind to treatment group.
Statistical analysis was performed on a Macintosh computer using GB-Stat ppc 6.5.2. The histological results were analyzed by the Kruskal-Wallis nonparametric analysis of variance (ANOVA). Post hoc comparisons were made using Mann-Whitney U tests.

SCI and MS patients = conditions: cited from earlier work
[2] = system: RuR-induced flaccid paralysis; assay: Antagonism of ruthenium red (RuR)-induced flaccid paralysis, flagpole test; assay type: in vivo, mouse; conditions: for antagonism of the flaccid paralysis induced by ip RuR (conclusion): doses of Table 3
Description: Method and Results: Groups of 4–5 mice (CD-1; Charles River; 25–35 grams) were separately but simultaneously injected ip with ruthenium red and vehicle (1% glacial acetic acid), ruthenium red and 4-AP, or ruthenium red and HP 184. The compound known as “8183” was also tested in this paradigm. Starting at 15 minutes after injections, mice were placed near a “flagpole” apparatus and their ability to support their own body weight (ie, to hold on to the flagpole and not fall) was recorded. Results were recorded as the number of mice that could support their own body weight versus the total number of mice tested. All experiments were performed between 2PM and 4:30PM.

[3] = system: long-standing (25 days) spinal cord injury of minor intensity; assay: Chronic crush experiment, 25-day old mild compression injury (1.6 mm), OFT score; assay type: in vivo, rat
Text: Normal spinal cord diameter is approximately 2.5 mm. This compression represents a moderate injury characterized by initial open field walking scores of 1.5–2.5 in the Open Field Walking Scale. […] The spinal cords of female rats were exposed to laminectomy or crush to a diameter of 1.6 mm. This represented a minor injury, and was designed to result in OFT scores of 4.0 after 25 days of no treatment. […] In this experiment, OFT scores were slightly higher (4.3–4.5), leaving only a small window for improvement. […] Consistent improvement was also observed after once a day ip 0.6 mg/kg 4-AP as well. The statistical differences were based upon the changes for each individual rat (each rat was its own control) using Mann-Whitney U-test. All the behavioral tests on day1, day2 and day3 were performed at 3 hours after gavage. There was no drug given on day3 (first day started to give drug was day 0).

[4] = system: moderate chronic (35 days post-injury) spinal cord crush; assay: Long standing moderate spinal cord crush (35 days), OFT score; assay type: in vivo, rat
Text: A tabular representation of the results from both chronic spinal cord injury studies (drugs first administered 25 days after a mild spinal cord crush and 35 days after a moderate spinal cord crush) are shown in Table 5.
One hundred fifty adult female Wistar rats, 250–300 g weight, obtained from Charles River were housed in the McMaster University Health Sciences Centre (HSC) Central Animal Facilities (CAF) for at least one week. During that time they were exposed to the performance tests described below, to ensure they were familiar with them. Rats were handled daily for 2 weeks prior to surgery.
Rats were anesthetized using isoflurane (3–5%): O2 (1 L/min) in an appropriately equipped surgical suite in the CAF. Temgesic (0.03 mg/kg body weight, subcutaneously (SQ)) was administered prior to surgery for pain relief. Spinal cords were crushed (compressed) with a 3.5 mm wide modified coverslip forceps (Blight 1991, procedure revised by Rathbone laboratory). The forceps were closed to 1.4 mm for 15 sec, which produced injury level equivalent to the mid-level (moderate) outcome on the Gruner scale (1996). The compression injury was otherwise performed according to the procedure described by Blight (1991).
Changes in locomotor behaviour and segmental reflexes were assessed up to 5 weeks post injury. Animals were tested in an open field walking task, hind limb placement and foot orientation. The animals were evaluated on days 2, 7, 14, 21, 28 and 35 after surgery. By 35 days after surgery, almost no further spontaneous recovery occurs. Therefore treatment began on day 35.
HP184 was dissolved in sterilized (autoclaved) deionized reverse-osmosis water acidified with glacial acetic acid (0.1 ml acid per 10 ml of water). 4-AP (Sigma, molecular weight 94.12; Jankowska E. et al., 1982; Gruner et al., 1999) was dissolved in physiological saline (0.6 mg/kg b.w.) and was administered by i.p. injection. One group of rats (vehicle control-1) received by oral gavage vehicle. Behaviourial testing was done immediately prior to receiving the gavage and at 3 hours thereafter. Then, the rats were scarified on day 35. All the other rats received either HP184 by oral gavage (0.3, 1, or 3 mg/kg bw depending on the group) or 4-AP (0.6 mg/kg, i.p.) or vehicle (vehicle control-2) once a day on the 35 to 42 days after surgery. On these days behaviourial tests were done immediately prior to receiving the gavage at 3 and 24 hours thereafter. Then, the rats were perfused on day 43 after the last behaviourial testing.
Statistical analyses were performed on a Macintosh computer using GB-Stat ppc 6.5.2. The behavioral scores were analyzed by the Kruskal-Wallis nonparametric analysis of variance (ANOVA). Post hoc comparisons were made using Mann-Whitney U tests.

[5] = system: mechanical hyperalgesia after nerve ligation; assay: Neuropathic pain model, spinal nerve constriction, von Frey paw withdrawal threshold; assay type: in vivo, rat; conditions: 90 mg/kg sc, tested 45 minutes after dosing
Description: Adult male Sprague-Dawley rats received unilateral constriction of the L6 nerve to produce chronic nerve injury. Following recovery from surgery (3–7 days post operative) animals were tested for paw withdrawal threshold to mechanical stimuli applied to the affected paw. This was determined by the application of calibrated von Frey monofilaments to the plantar surface of each hindpaw. Only animals with a 50% decrease in withdrawal threshold in the ligated paw were employed in the study, and were randomly assigned to one of 6 groups: three groups receiving one of three doses of HP 184 (0.3, 3 and 20 mg/kg, po), a fourth group receiving a single dose of another compound referred to MDL (10 mg/kg, ip), a fifth group receiving gabapentin (90 mg/kg, sc), and a sixth group receiving vehicle only. Behavioral testing occurred 45 minutes following the gabapentin (90 mg/kg, sc), and 3 hours following the HP 184, MDL, and vehicle. A difference score between the ligated and non-ligated paw withdrawal thresholds is calculated for each animal, and these differences were subjected to ANOVA with group as the main factor. […] Analysis was between/within repeated measures ANOVA. […]

[6] = 0.3 mg/kg ip with RuR 30 mg/kg ip, 15 min
[7] = 0.3 mg/kg ip with RuR 30 mg/kg ip, 30 min
[8] = 0.3 mg/kg ip with RuR 30 mg/kg ip, 45 min
[9] = 0.6 mg/kg ip with RuR 30 mg/kg ip, 15 min
[10] = 0.6 mg/kg ip with RuR 30 mg/kg ip, 30 min
[11] = 0.6 mg/kg ip with RuR 30 mg/kg ip, 45 min
[12] = 10 mg/kg ip with RuR 30 mg/kg ip, 15 min
[13] = 10 mg/kg ip with RuR 30 mg/kg ip, 30 min
[14] = 10 mg/kg ip with RuR 30 mg/kg ip, 45 min
[15] = 30 mg/kg ip with RuR 30 mg/kg ip, 15 min
[16] = 30 mg/kg ip with RuR 30 mg/kg ip, 30 min
[17] = 30 mg/kg ip with RuR 30 mg/kg ip, 45 min
[18] = 100 mg/kg ip with RuR 30 mg/kg ip, 15 min
[19] = 100 mg/kg ip with RuR 30 mg/kg ip, 30 min
[20] = 100 mg/kg ip with RuR 30 mg/kg ip, 45 min

Nc1ccncc1 [4-AP, 4-amino pyridine]
myelinated / demyelinated area at the crush center, FIG. 7 [1]: significantly greater myelinated area than that of saline controls | doses at which restlessness, confusion and generalized tonic-clonic seizures have been reported (SCI and MS patients; Ball et al, 1979, Bever et al, 1994): higher than 0.8 mg/kg | serum level necessary for significant improvement (SCI and MS patients; MS patients, oral administration (Van Diemen et al, 1993)): 33 to 75 ng/mL | serum level at which a grand mal seizure was reported (SCI and MS patients; human study (Bever et al, 1994)): 104 ng/mL | % of mice that could support their own body weight [2, 6]: (88%) | number of mice that could support their own body weight versus total tested [2, 6]: 22 out of 25 | % of mice that could support their own body weight [2, 7]: (52%) | number of mice that could support their own body weight versus total tested [2, 7]: 13 out of 25 | % of mice that could support their own body weight [2, 8]: (48%) | number of mice that could support their own body weight versus total tested [2, 8]: 12 out of 25 | % of mice that could support their own body weight [2, 9]: (85.7%) | number of mice that could support their own body weight versus total tested [2, 9]: 12 out of 14 | % of mice that could support their own body weight [2, 10]: (57.1) | number of mice that could support their own body weight versus total tested [2, 10]: 8 out of 14 | % of mice that could support their own body weight [2, 11]: (57.1%) | number of mice that could support their own body weight versus total tested [2, 11]: 8 out of 14 | antagonism of the flaccid paralysis induced by ip RuR (conclusion) [2]: can antagonize the flaccid paralysis | OFT improvement compared to vehicle control (Mann-Whitney U-test) ([3]; 0.6 mg/kg ip once a day, p=0.0027): significant improvement at 90 min to 3 h and 12 h to day 2 | OFT score 3 hours after last dose (Day 28, mild) ([3]; 0.6 mg/kg ip once a day, three consecutive daily doses): 4.53 ± 0.02 and 4.53 ± .023 | % possible improvement (highest score = 5), mild ([3]; 0.6 mpk ip): 17.5%* | Delta of OFT score, Day 25 to Day 28 (mild) ([3]; 0.6 mpk ip): .10 | OFT score prior to dose (Day 25, mild) ([3]; group 0.6 mg/kg ip, baseline before dosing): 4.43 ± 0.03 and 4.43 ± .030 | motor recovery, Open Field Walking Test ([4]; 0.6 mg/kg ip, thirty-five days after moderate injury): similarly effective | % possible improvement, moderate ([4]; 0.6 mpk ip): 22.1%* | Delta of OFT score, Day 35 to Day 39 (moderate) ([4]; 0.6 mpk ip): .22 | OFT score Day 39 (moderate) 3 hrs after last dose ([4]; 0.6 mpk ip daily): 4.17 ± .047 | open field locomotor ability (mean OFT scores) vs vehicle, FIGS. 6a and 6b ([4]; HP184 0.3, 1 or 3 mg/kg po or 4-AP 0.6 mg/kg ip once a day, days 35–42, treatment effect p<0.01): significantly different from that of control animals receiving vehicle | OFT score Day 35 (moderate) prior ([4]; group 0.6 mpk ip, baseline before dosing): 3.95 ± .084

Nc1nc2ccc(OC(F)(F)F)cc2s1 [RIL, riluzole]
% of mice that could support their own body weight [2, 12]: (60%) | number of mice that could support their own body weight versus total tested [2, 12]: 9 out of 15 | % of mice that could support their own body weight [2, 13]: (26.7%) | number of mice that could support their own body weight versus total tested [2, 13]: 4 out of 15 | % of mice that could support their own body weight [2, 14]: (26.7%) | number of mice that could support their own body weight versus total tested [2, 14]: 4 out of 15 | antagonism of the flaccid paralysis induced by ip RuR (conclusion) [2]: lack of effect

Cc1cn(Nc2ccncc2F)c2ccccc12 [compound 8183]
% of mice that could support their own body weight [2, 15]: (92.8%) | number of mice that could support their own body weight versus total tested [2, 15]: 13 out of 14 | % of mice that could support their own body weight [2, 16]: (92.8%) | number of mice that could support their own body weight versus total tested [2, 16]: 13 out of 14 | % of mice that could support their own body weight [2, 17]: (100%) | number of mice that could support their own body weight versus total tested [2, 17]: 14 out of 14

NCC1(CC(=O)O)CCCCC1 [gabapentin, reference compound]
mechanical hyperalgesia, difference of ligated minus normal paw withdrawal threshold, FIG. 10 [5]: clear reversal of hyperalgesia

diphenylhydaintoin [DPH]
% of mice that could support their own body weight [2, 15]: (26.7%) | number of mice that could support their own body weight versus total tested [2, 15]: 4 out of 15 | % of mice that could support their own body weight [2, 16]: (20%) | number of mice that could support their own body weight versus total tested [2, 16]: 3 out of 15 | % of mice that could support their own body weight [2, 17]: (26.7%) | number of mice that could support their own body weight versus total tested [2, 17]: 4 out of 15 | % of mice that could support their own body weight [2, 18]: (55%) | number of mice that could support their own body weight versus total tested [2, 18]: 11 out of 20 | % of mice that could support their own body weight [2, 19]: (50%) | number of mice that could support their own body weight versus total tested [2, 19]: 10 out of 20 | % of mice that could support their own body weight [2, 20]: (50%) | number of mice that could support their own body weight versus total tested [2, 20]: 10 out of 20 | antagonism of the flaccid paralysis induced by ip RuR (conclusion) [2]: lack of effect
